Experimental data as given in US20050096282A1, “Adeno-associated virus-delivered ribozyme compositions and methods for the treatment of retinal diseases” (priority 1997, published 2005).
Several values for one entry are separate records, joined by “and”; a condition that tells them apart may be missing. Identical values can stand only once.

Key:
HREC [1] = assay: BrdU incorporation (DNA synthesis) in HRECs; format: cell-based, human; details: XAC 10 μM; CPX 20 nM; SCH58261 60 nM
Method: The subtype of adenosine receptor (A2B) that mediates the proliferative effect of adenosine on HREC was determined by the following studies. […] In contrast, neither the A2A adenosine receptor agonist CGS21680 (2-p-(2-carboxyethyl) phenethylamino-5′-N-ethylcarboxamidoadenosine) at concentrations ranging from 10 nM to 10 μM, nor the A1 adenosine receptor agonist CPA (N^6-cyclopentyladenosine) at concentrations ranging from 10 nM to 10 μM increased BrdU incorporation by HRECs. […] In contrast, neither the selective A1 adenosine receptor antagonist CPX (8-cyclopentyl-1,3-dipropylxanthine) at 20 nM, nor the selective A2A adenosine receptor antagonist SCH58261 (5-amino-7-(2-phenylethyl)-2-(2-furyl)-pyrazolo(4,3-E)-1,2,4-trizolo(1,5-c) pyrimidine) at 60 nM attenuated the stimulatory effect of NECA on BrdU incorporation by HRECs. These findings indicate that the proliferative effects of NECA are mediated by the A2B adenosine receptor in HREC in culture (Table 3).

HREC [2] = assay: cAMP content of intact HRECs; format: cell-based, human; details: NECA 10 μM
Text: The cAMP content of intact HRECs following treatment with adenosine receptor agonists and antagonists was next examined. […] The effect of selective A1 and A2A adenosine receptor antagonists on NECA-induced accumulation of cAMP was also examined.

[3] = tested on: adenosine A2b receptor mRNA; assay: Ribozyme kinetic analysis, A2B; format: biochemical
Text: (§1) The chief characteristic of diabetic retinopathy is retinal neovascularization-the pathologic spread of blood vessels in the eye. Unique ribozymes have been developed which target the mRNAs that encode various proteins involved in this process. These include ribozymes directed at the wild-type mRNA for the adenosine A2b receptor, for IGF-I (insulin-like growth factor-1) receptor, for inducible nitric oxide synthase (iNOS), and for several integrins implicated in retinal neovascularization (e.g., alpha1, alpha3, alphaV). Also shown in Table 7 are the analyses of P347S ribozymes, that are specific for another mutant form of the rod opsin polypeptide.

[4] = tested on: P347S rod opsin mRNA target AGGCGUCAGCCUA; assay: Ribozyme kinetic analysis, P347S pig; format: biochemical
Text: as §1

alpha1 integrin mRNA = assay: Ribozyme kinetic analysis, alpha 1 integrin; format: biochemical
Text: as §1

alpha3 integrin mRNA = assay: Ribozyme kinetic analysis, alpha 3 integrin; format: biochemical
Text: as §1

alphaV integrin mRNA = assay: Ribozyme kinetic analysis, alpha V integrin; format: biochemical
Text: as §1

[5] = per experiment, target CAUGUCUCUUUG
[6] = per experiment, Rz 1 target AGAUGUCUAUAAG, Rz 2 target GAGAGUCUCAUGA
[7] = per experiment, Rz 1 target CUAUGCCUUCAUG, Rz 2 target CGCUGUCUUCCAC
[8] = per experiment, Rz 1 target GCGCGUCUUCCCG, Rz 2 target ACUGGUCUUCUAC

For `CCCn1c(=O)c2[nH]c(C3CCCC3)nc2n(CCC)c1=O` [CPX, 8-cyclopentyl-1,3-dipropylxanthine], the “attenuation of NECA-stimulated BrdU incorporation by HRECs” value (HREC [1]) was “neither” and the “inhibition of NECA-induced increase in cAMP content in HRECs” value (HREC [2]) was “not signficantly inhibited”.
`Nc1nc2c(cnn2CCc2ccccc2)c2nc(-c3ccco3)nn12` [SCH58261, 5-amino-7-(2-phenylethyl)-2-(2-furyl)-pyrazolo(4,3-E)-1,2,4-trizolo(1,5-c) pyrimidine] was tested, and the “attenuation of NECA-stimulated BrdU incorporation by HRECs” value (HREC [1]) was “neither” and the “inhibition of NECA-induced increase in cAMP content in HRECs” value (HREC [2]) was “not signficantly inhibited”.
Work on “A2B Rz 1: hammerhead ribozyme CAAAGACUGAUGAGCCGUUCGCGGCGAAACAUGU (SEQ ID NO:90), adenosine A2b receptor mRNA (RNA, backbone not given here)” yielded a Km ([3]; mean) of 4.35 µM, a Vmax ([3]; mean) of 541.7 nM/min and a kcat ([3]; mean) of 36.1 min − 1. For the same molecule, the Km [3, 5] was 5.07 µM and 3.63 µM, the Vmax [3, 5] was 666.7 nM/min and 416.7 nM/min and the kcat [3, 5] was 44.4 min − 1 and 27.8 min − 1.
Molecule “P347S pig: ribozyme UAGGCUCUGAUGAGCCGCUUCGGCGGCAAACGCCU (SEQ ID NO:102), P347S mutant rod opsin mRNA (listed as RNA, chemistry not given here)” has a Km ([4]; mean) of 2.05 µM, a Vmax ([4]; mean) of 7.3 nM/min and a kcat ([4]; mean) of 1.5 min − 1. The Km ([4]; per experiment) was 1.65 µM and 1.68 µM and 2.84 µM and the kcat ([4]; per experiment) was 1.8 min − 1 and 2.2 min − 1 and 1.3 min − 1 and 1.1 min − 1 and 1.2 min − 1.
Molecule “alpha 1 Rz 1: ribozyme CUUAUACUGAUGAGCCGUUCGCGGCGAAACAUCU (SEQ ID NO:96), alpha1 integrin mRNA (RNA, backbone not given here)” has a Km (alpha1 integrin mRNA; mean) of 25.6 µM, a Vmax (alpha1 integrin mRNA; mean) of 57.0 nM/min and a kcat (alpha1 integrin mRNA; mean) of 3.8 min − 1. The Vmax (alpha1 integrin mRNA; [6]) was 61.7 nM/min and 52.4 nM/min and the kcat (alpha1 integrin mRNA; [6]) was 4.1 min − 1 and 3.5 min − 1.
Work on “alpha 1 Rz 2: ribozyme UCAUGACUGAUGAGCCGUUCGCGGCGAAACUCUC (SEQ ID NO:97), alpha1 integrin mRNA (RNA, backbone not given here)” yielded a Km (alpha1 integrin mRNA; mean) of 42.2 µM, a Vmax (alpha1 integrin mRNA; mean) of 42.2 nM/min and a kcat (alpha1 integrin mRNA; mean) of 2.9 min − 1. For the same molecule, the Km (alpha1 integrin mRNA; [6]) was 30.6 µM and 53.8 µM, the Vmax (alpha1 integrin mRNA; [6]) was 31.0 nM/min and 53.5 nM/min and the kcat (alpha1 integrin mRNA; [6]) was 2.1 min − 1 and 3.6 min − 1.
With “alpha 3 Rz 1: ribozyme CAUGAACUGAUGAGCCGUUCGCGGCGAAACAUAG (SEQ ID NO:92), alpha3 integrin mRNA (RNA, backbone not given here)” the Km (alpha3 integrin mRNA; mean) was 4.16 µM, the Vmax (alpha3 integrin mRNA; mean) was 6.2 nM/min and the kcat (alpha3 integrin mRNA; mean) was 0.4 min − 1. The Km (alpha3 integrin mRNA; [7]) was 3.62 µM and 4.69 µM, the Vmax (alpha3 integrin mRNA; [7]) was 5.4 nM/min and 6.9 nM/min and the kcat (alpha3 integrin mRNA; [7]) was 0.4 min − 1 and 0.5 min − 1.
“alpha 3 Rz 2: ribozyme GUGGAACUGAUGAGCCGUUCGCGGCGAAACAGCG (SEQ ID NO:93), alpha3 integrin mRNA (RNA, backbone not given here)” showed a Km (alpha3 integrin mRNA; mean) of 1.45 µM, a Vmax (alpha3 integrin mRNA; mean) of 2.5 nM/min and a kcat (alpha3 integrin mRNA; mean) of 0.2 min − 1. For the same molecule, the Km (alpha3 integrin mRNA; [7]) was 1.66 µM and 1.24 µM, the Vmax (alpha3 integrin mRNA; [7]) was 2.8 nM/min and 2.2 nM/min and the kcat (alpha3 integrin mRNA; [7]) was 0.2 min − 1.
“alpha V Rz 1: ribozyme CGGGAACUGAUGAGCCGUUCGCGGCGAAACGCGC (SEQ ID NO:98), alphaV integrin mRNA (RNA, backbone not given here)” was tested, and the Km (alphaV integrin mRNA; mean) was 5.2 µM, the Vmax (alphaV integrin mRNA; mean) was 33.4 nM/min and the kcat (alphaV integrin mRNA; mean) was 2.2 min − 1. For the same molecule, the Km (alphaV integrin mRNA; [8]) was 4.98 µM and 5.41 µM, the Vmax (alphaV integrin mRNA; [8]) was 30.5 nM/min and 36.2 nM/min and the kcat (alphaV integrin mRNA; [8]) was 2.0 min − 1 and 2.4 min − 1.
“alpha V Rz 2: ribozyme GUAGAACUGAUGAGCCGUUCGCGGCGAAACCAGU (SEQ ID NO:99), alphaV integrin mRNA (RNA, backbone not given here)” showed a Km (alphaV integrin mRNA; mean) of 11.3 µM, a Vmax (alphaV integrin mRNA; mean) of 285.7 nM/min and a kcat (alphaV integrin mRNA; mean) of 19.1 min − 1. For the same molecule, the Km (alphaV integrin mRNA; [8]) was 8.54 µM and 14 µM, the Vmax (alphaV integrin mRNA; [8]) was 238.1 nM/min and 333.3 nM/min and the kcat (alphaV integrin mRNA; [8]) was 15.9 min − 1 and 22.2 min − 1.
